This assay concerns AP-1 induced transcriptional activity. As to the kind of experiment: Cellular Transrepressional Assay: AP-1 luciferase reporter in PMA-activated A549 cells. In kind it is cell-based. To be noted: for Emax: A549, 7 h, maximum inhibition, read-out: AP-1 Max % inh (Cellular Transrepression Assay). An outline of the steps:
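Compounds tested from 0.1 nM to 40 μM during a 7 h PMA (10 ng/ml) stimulation of A549 cells stably transfected with 7× AP-1 sites driving luciferase. Repression expressed as % reduction of PMA-induced luminescence; EC50 by curve fitting.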
In general terms: A reporter such as luciferase makes a cellular process visible.

[1] abbreviates: Homo sapiens, Cellular Transrepression Assay.
[2] abbreviates: Homo sapiens, A549, Cellular Transrepression Assay.

A word on the EC50: it is the concentration at which the effect is half-maximal. A higher EC50 goes with a need for much substance.

Turning to `CC(C)(C(=O)Nc1nccs1)C(c1ccc(O)cc1)c1ccc(O)cc1` [Example 186, 3,3-bis(4-hydroxyphenyl)-2,2-dimethyl-N-1,3-thiazol-2-ylpropanamide], the Emax under setting [1] turned out to be 20.5%.
With `CC(C)(C(=O)Nc1nncs1)C(c1ccccc1)c1ccc(N2CCOCC2)cc1` (stereo not shown) [Example 225, 2,2-dimethyl-3-(4-(4-morpholinyl)phenyl)-3-phenyl-N-1,3,4-thiadiazol-2-ylpropanamide], under “Cellular Transrepression Assay”, the response was half-maximal at 114 nM (EC50). The Emax under setting [1] is 34.3%.
`CC(C)(C(=O)Nc1nc(Cc2ccc(-c3ccncc3)cc2)cs1)C(c1ccccc1)c1ccc(N2CCOCC2)cc1` (stereo not shown) [Example 223, 2,2-dimethyl-3-(4-(4-morpholinyl)phenyl)-3-phenyl-N-(4-((4-(4-pyridinyl)phenyl)methyl)-1,3-thiazol-2-yl)propanamide]: the Emax under setting [1] is 70.8%. Moreover, the midpoint of the response under setting [2], the EC50, lay at 88.1 nM.
On to `CC(C)(C(=O)Nc1nccs1)[C@@H](c1ccccc1)c1ccc(OC(=O)c2ccco2)cc1` [Example 362, 4-((1S)-2,2-dimethyl-3-oxo-1-phenyl-3-(1,3-thiazol-2-ylamino)propyl)phenyl 2-furancarboxylate], for which the Emax under setting [1] came out at 33.4%. This molecule registered an EC50 under setting [2] of 16.6 nM.
In the case of `COc1ccc(C(c2ccccc2)C(C)(C)C(=O)Nc2nc(-c3ccccc3)cs2)cc1` (stereo not shown) [Example 107, 2,2-dimethyl-3-(4-(methyloxy)phenyl)-3-phenyl-N-(4-phenyl-1,3-thiaozl-2-yl)propanamide], the Emax under setting [1] came out at 38.4%.
Regarding `CC(C)(C(=O)Nc1nccs1)C(c1ccccc1)c1ccc(N2CCOCC2)cc1` (stereo not shown) [Example 224, 2,2-dimethyl-3-(4-(4-morpholinyl)phenyl)-3-phenyl-N-1,3-thiazol-2-ylpropanamide], the Emax under setting [1] came to 33.8%. This molecule showed an EC50 under setting [2] of 161 nM.
Taken in the same sequence, the figures for `CC(C)(C(=O)Nc1nccs1)C(c1ccc(N2CCOCC2)cc1)c1cccc(F)c1` (single isomer, unassigned) [Example 253, 3-(3-fluorophenyl)-2,2-dimethyl-3-(4-(4-morpholinyl)phenyl)-N-1,3-thiazol-2-ylpropanamide] were 27.9% and 37 nM.
Take `CC(C)(C(=O)Nc1nc(Cc2ccc(-c3ccncc3)cc2)cs1)C(c1ccccc1)c1ccc(Br)cc1` (stereo not shown) [Example 300, 3-(4-bromophenyl)-2,2-dimethyl-3-phenyl-N-(4-((4-(4-pyridinyl)phenyl)methyl)-1,3-thiazol-2-yl)propanamide]: under setting [1], the Emax turned out to be 73.7%. Moreover, under setting [2], it took 9.97 nM to reach a half-maximal effect (EC50).
Taken in the same sequence, the figures for `COc1ccc([C@@H](c2ccccc2)C(C)(C)C(=O)Nc2nncs2)cc1` [Example 276, (3R)-2,2-dimethyl-3-(4-(methyloxy)phenyl)-3-phenyl-N-1,3,4-thiadiazol-2-ylpropanamide] were 34% and 190 nM.
Regarding `COc1ccc(-c2ccc(C(c3ccccc3)C(C)(C)C(=O)Nc3nncs3)cc2)cc1` (stereo not shown) [Example 378, 2,2-dimethyl-3-(4′-(methyloxy)-4-biphenylyl)-3-phenyl-N-1,3,4-thiadiazol-2-ylpropanamide], the Emax under setting [1] is 26.2%. This molecule yielded an EC50 under setting [2] of 894 nM.
For `CC(C)(C(=O)Nc1nncs1)C(c1ccccc1)c1ccc(-c2ccc(-c3ccccc3)cc2)cc1` (stereo not shown) [Example 404, 2,2-dimethyl-3-phenyl-3-(1,1′:4′,1″- terphenyl-4-yl)-N-1,3,4-thiadiazol-2-ylpropanamide], the Emax under setting [1] turned out to be 21.9%. Also, the midpoint of the response under setting [2], the EC50, lay at 9.57 nM.
For `CC(C)(C(=O)Nc1nc(Cc2ccc(-c3ccncc3)cc2)cs1)C(c1ccccc1)c1cccc(O)c1` (stereo not shown) [Example 357], the Emax under setting [1] turned out to be 73.7%. In addition, the EC50 under setting [2] was 144 nM.
For the molecule `Cc1cccc(C(c2ccc(N3CCOCC3)cc2)C(C)(C)C(=O)Nc2nccs2)c1` (stereo not shown) [Example 234, 2,2-dimethyl-3-(3-methylphenyl)-3-(4-(4-morpholinyl)phenyl)-N-1,3-thiazol-2-ylpropanamide], under setting [1], the Emax was 39%. The EC50 under setting [2] stood at 573 nM.
On the same counts, the results for `CC(=O)Oc1ccc([C@H](c2ccccc2)C(C)(C)C(=O)Nc2nccs2)cc1` [Example 361, 4-((1S)-2,2-dimethyl-3-oxo-1-phenyl-3-(1,3-thiazol-2-ylamino)propyl)phenyl acetate] are 36.4% and 13.3 nM.
For the molecule `COc1cccc(C(c2ccccc2)C(C)(C)C(=O)Nc2nc3ccccc3s2)c1` (stereo not shown) [Example 101, N-1,3-benzothiazol-2-yl-2,2-dimethyl-3-(3-(methyloxy)phenyl)-3-phenylpropanamide], the Emax under setting [1] stood at 26.9%.
As for `CC(C)CC(c1ccc(-c2ccc(OC(C)C)cc2)cc1)C(C)(C)C(=O)Nc1nncs1` (stereo not shown) [Example 395, 2,2,5-trimethyl-3-(4′-((1-methylethyl)oxy)-4-biphenylyl)-N-1,3,4-thiadiazol-2-ylhexanamide], the Emax under setting [1] was determined as 32.5%. Further, under setting [2], the EC50 is 13.4 nM.
On the same counts, the results for `CC(C)c1cccc(-c2ccc(C(c3ccccc3)C(C)(C)C(=O)Nc3nncs3)cc2)c1` (stereo not shown) [Example 423, 3-(3′-isopropyl-4-biphenylyl)-2,2-dimethyl-3-phenyl-N-1,3,4-thiadiazol-2-ylpropanamide] are 34.8% and 6.07 nM.
In the case of `Cc1ccc(-c2csc(NC(=O)C(C)(C)C(c3ccccc3)c3ccccc3)n2)c2ccccc12` [Example 164, 2,2-dimethyl-N-(4-(4-methyl-1-naphthalenyl)-1,3-thiazol-2-yl)-3,3-diphenylpropanamide], the Emax under setting [1] was 75.2%. Also, the midpoint of the response under setting [2], the EC50, lay at 810 nM.
Take `CCOC(=O)c1sc(NC(=O)C(C)(C)C(c2ccccc2)c2cccc(O)c2)nc1C` (stereo not shown) [Example 206, ethyl 2-((3-(3-hydroxyphenyl)-2,2-dimethyl-3-phenylpropanoyl)amino)-4-methyl-1,3-thiazole-5-carboxylate]: under setting [1], the Emax came out at 37.7%.

Source of the values: patent US7968577B2 (Bristol-Myers Squibb Company, priority 2006, dated 2011).
